Laboratory results reported in PMC10072198, “A covalent inhibitor targeting the papain-like protease from SARS-CoV-2 inhibits viral replication” (RSC Advances, 2023).
“Also recorded” adds a separate entry of the source.

Assays:
SARS-CoV-2 Mpro(3CL) = SARS-CoV-2 Mpro(3CL) (Severe acute respiratory syndrome coronavirus 2, UniProt P0DTD1); assay: Fluorescence based Mpro(3CL) activity assay; assay type: biochemical
Method: Fluorescence based Mpro(3CL) activity assays
The ability of compounds 1, 19 and 20 to inhibit Mpro was determined using SensoLyte® 520 SARS-CoV-2 3CL Protease Activity Assay Kit (Anaspec), following the manufacturer’s instructions. Briefly, 40 µL diluted Mpro enzyme solution was added to a flat-bottom 96-well plate.
10 µL of varying concentrations of test compounds or GC 376 solution (an Mpro inhibitor) was (1 picture or pasted object on this page, not shown here) […]
(§1) subsequently added to the enzyme solution. The mixed solutions were incubated at room temperature for 20 min. 50 µL of Mpro protease substrate solution was added to each well, followed by 30 min incubation at 37 °C. The Mpro activity was detected by measuring the fluorescence emission intensity λ excitation=490 nm; λ emission=520nm.
(§2) Compound concentration µM
(§3) Fluorescence based PLpro activity assay in the presence of […] (DTT) and […]
(§4) PLpro inhibition assays were performed in the presence of 5 mM DTT and GSH to determine if […]
(§5) PLpro protease activity was measured with peptide substrate x-x-G-G-AMC (Bachem) in the presence or absence of 5 mM DTT and GSH.
(§6) PLpro was added into a black, flat-bottom 96-well plate at a final concentration of 50 nM with reaction buffer [150 mM NaCl, 20 mM HEPES, 0.1mg/mL BSA, pH 7.5] with or without 5 mM DTT […]
(§7) 0-80 µM for 20 min at room temperature. The enzyme activity assay was initiated by mixing the x-x-G-G-AMC probe at a final 50 µM and incubating for another 20 min at room temperature. The reaction was ended by adding 1 µL of aqueous citric acid. The PLpro activity was detected by measuring the fluorescence emission intensity λ excitation=360 nm; λ emission=460nm.

PLpro [1] = molecular target: T1, PLpro (Severe acute respiratory syndrome coronavirus 2, UniProt P0DTD1); assay: PLpro irreversibility test (pre-incubation then dilution); assay type: biochemical, SARS-CoV-2
Text: All error bars represent the standard error of the mean for n = 3 replicates.

PLpro [2] = molecular target: T1, PLpro; assay: PLpro activity assay in the presence of DTT and GSH; assay type: biochemical, SARS-CoV-2; settings: 5 mM glutathione or 5 mM DTT
Method: as §1, §2, §3, §4, §5, §6, §7

PLpro from SARS-CoV-2 = PLpro from SARS-CoV-2 (Severe acute respiratory syndrome coronavirus 2, UniProt P0DTD1); assay: Fluorescence based PLpro activity assay (R-L-R-G-G-AMC substrate); assay type: biochemical; settings: read-out: IC50 (PLpro inhibition)
[3] = system: SARS-CoV-2 (US/WA1/2020 isolate); assay: SARS-CoV-2 infection of cells (dsRNA staining, RT-qPCR of viral RNA); assay type: cell-based; settings: for inhibition of SARS-CoV-2 replication in cells (in words): Calu-3 and/or Vero E6 cells
in vitro = settings: human
[4] = Determination of GSH t1/2 values; settings: buffer, pH 7.4
SARS-CoV PLpro = settings: cited from earlier work
SARS-CoV2 = settings: mouse, in vivo, po; cited from earlier work

Question: Which “inhibition of Mpro (in words)” value (SARS-CoV-2 Mpro(3CL)) does the source give for O=C(CCl)Nc1ccc2c(c1)NC(=O)CO2 [Compound 1] here?
Answer: did not inhibit; also recorded: no interaction

Question: What about the “PLpro inhibition without pre-incubation” value (PLpro [1]; 500 nM, without pre-incubation at 50 μM) of the same compound?
Answer: no inhibition

Question: And the “PLpro inhibition after pre-incubation and dilution” value (PLpro [1]; pre-incubated at 50 μM for 1 hour, then diluted to 500 nM)?
Answer: complete inhibition

Question: And the “PLpro inhibition in the presence of thiols (in words)” value (PLpro [2])?
Answer: able to inhibit PLpro

Question: And the IC50 (PLpro from SARS-CoV-2)?
Answer: 18 µM

Question: And the “inhibition of SARS-CoV-2 replication in cells (in words)” value (from here on “inhibition of SARS-CoV-2 replication”) [3]?
Answer: blocked SARS-CoV-2 replication in both cell lines; also recorded: inhibited viral replication in both cell lines

Question: And the IC50 ([3]; Severe acute respiratory syndrome coronavirus 2, Calu-3 and Vero E6 cells, 72 hours, read-out: IC50 for inhibiting viral replication)?
Answer: < 20 µM

Question: With O=C(CCl)Nc1ncc([N+](=O)[O-])s1 [Compound 2] as the compound, how does the IC50 (PLpro from SARS-CoV-2) read?
Answer: 13 µM

Question: What does the source list for Cn1ncc(C(=O)CCl)n1 [Compound 3]?
Answer: CC50 (in vitro): 62.5 µM; IC50 (PLpro from SARS-CoV-2): 0.3 µM; inhibition of SARS-CoV-2 replication in cells (in words) [3]: not effective in cells

Question: Which CC50 (in vitro) does the source give for O=C(NCCc1ccc(F)cc1)n1ccnc1 [Compound 4] here?
Answer: > 500 µM

Question: What about the IC50 (PLpro from SARS-CoV-2) of the same compound?
Answer: 2.5 µM

Question: What about the half-life at 0.05 mM [4] of the same compound?
Answer: 13.4 min

Question: Which CC50 (in vitro) does the source give for O=S(=O)(F)c1cncc(Cl)n1 [Compound 5] here?
Answer: > 500 µM

Question: And the IC50 (PLpro from SARS-CoV-2)?
Answer: 1.7 µM

Question: For C=CS(=O)(=O)c1nc2ccccc2s1 [Compound 6], which IC50 (PLpro from SARS-CoV-2) is on record?
Answer: 1 µM

Question: For O=C1COc2cc([N+](=O)[O-])c(NC(=O)CCl)cc2N1 [Compound 19], which “inhibition of Mpro (in words)” value (SARS-CoV-2 Mpro(3CL)) is on record?
Answer: no interaction

Question: And the IC50 (PLpro from SARS-CoV-2)?
Answer: 5 µM

Question: What about the “inhibition of SARS-CoV-2 replication” value [3] of the same compound?
Answer: no inhibitory activity against SARS-CoV-2; also recorded: did not inhibit viral replication

Question: Which “inhibition of Mpro (in words)” value (SARS-CoV-2 Mpro(3CL)) does the source give for O=C(CCl)Nc1cc2c(cc1Br)CCC(=O)N2 [Compound 20] here?
Answer: no interaction

Question: And the IC50 (PLpro from SARS-CoV-2)?
Answer: 6 µM

Question: And the “inhibition of SARS-CoV-2 replication” value [3]?
Answer: no inhibitory activity against SARS-CoV-2; also recorded: did not inhibit viral replication

Question: With Cc1ccc(N)cc1C(=O)N[C@H](C)c1cccc2ccccc12 [GRL-0617] as the compound, how does the IC50 (SARS-CoV PLpro) read?
Answer: […]

Question: What about the “antiviral activity against SARS-CoV2 in mice” value (SARS-CoV2) of the same compound?
Answer: moderate antiviral activity
